# Experimental data from PMC6134108, “Nystatin-like Pseudonocardia polyene B1, a novel disaccharide-containing antifungal heptaene antibiotic” (Scientific Reports, 2018).
# Like-named read-outs stand apart in the source and are kept apart here.
# What was measured:
# C. albicans SC5314 = assay: MIC assay (CLSI M27-A3 microbroth); type: cell-based; settings: Candida albicans, SC5314, read-out: Antifungal activity (MIC)
# Protocol: (§1) For the minimum inhibitory concentration (MIC) assay, strains for testing were grown on YPD agar for 24 hours, and subcultured to YPD broth medium. Whole strains were incubated for 18 hours at 35 °C by shaking incubator. Grown organisms were diluted with fresh RPMI 1640 medium to appropriate concentration, 5 × 10^4 CFU/ml. Cultures were inoculated to 96-well plates containing antifungal medium. All compounds were dissolved using Dimethyl Sulfoxide (DMSO) and diluted broth media. Fungal diluted solution and antifungal medium were mixed at 1:1 ratio so total 200 ul mixed medium was made. Whole experiment plates were incubated for 24 hours at 37 °C. […] The MICs were calculated in duplicate using the Clinical and Laboratory Standards Institute M27-A3 microbroth methodology. Hemolysis experiments and the 3-(4,5-dimethylthiazol-2-yl)-5-(3-carboxymethoxyphenyl)-2-(4-sulfophenyl)-2H-tetrazolium (MTS) cell proliferation colorimetric assay were performed following known procedures[12],[27],[29].
# C. albicans SL28 = assay: MIC assay (CLSI M27-A3 microbroth); type: cell-based; settings: Candida albicans, SL28, read-out: Antifungal activity (MIC)
# Protocol: as §1
# C. albicans SL38 = assay: MIC assay (CLSI M27-A3 microbroth); type: cell-based; settings: Candida albicans, SL38, read-out: Antifungal activity (MIC)
# Protocol: as §1
# [1] = test system: Candida albicans KCTC7965; assay: MIC assay (CLSI M27-A3 microbroth); type: cell-based; settings: Candida albicans, KCTC7965, read-out: Antifungal activity (MIC)
# Protocol: as §1
# [2] = test system: Cryptococcus humicola ATCC9949; assay: MIC assay (CLSI M27-A3 microbroth); type: cell-based; settings: Vanrija humicola, ATCC9949, read-out: Antifungal activity (MIC)
# Protocol: as §1
# [3] = test system: Saccharomyces cerevisiae ATCC9035; assay: MIC assay (CLSI M27-A3 microbroth); type: cell-based; settings: Saccharomyces cerevisiae, ATCC9035, read-out: Antifungal activity (MIC)
# Protocol: as §1
# horse blood cells = type: cell-based; settings: 90% hemolysis against horse blood cells; ± percentage standard deviation
# Protocol: as §1
# in vivo [4] = settings: mouse, 0.5 mg/kg
# Description: Supplement 41598_2018_31801_MOESM1_ESM.docx, table 4: Table S4.
# [5] = Single intravenous dose acute toxicity; type: in vivo, mice; settings: ICR, mouse, in vivo, single intravenous administration
# Protocol: (§2) All in vivo mouse toxicity studies were conducted according to Testing Guidelines for Safety Evaluation of Drugs[32] and the Organisation for Economic Co-operation and Development (OECD) Guideline[33]. Male and female ICR mice were used 7 weeks old for the toxicity test. […] The single doses were 1, 2.5, and 5 mg per kg body weight.
# ICR mice [6] = assay: Single intravenous dose acute toxicity; type: in vivo
# Protocol: as §2
# [7] = 7-day repeated intravenous dose toxicity; type: in vivo, mice; settings: both sexes, ICR, mouse, in vivo; mice, 7-day repeated intravenous doses; read-out: MTD, maximal tolerated dose
# Protocol: (§3) All in vivo mouse toxicity studies were conducted according to Testing Guidelines for Safety Evaluation of Drugs[32] and the Organisation for Economic Co-operation and Development (OECD) Guideline[33]. Male and female ICR mice were used 7 weeks old for the toxicity test. […]
# ICR mice [8] = assay: 7-day repeated intravenous dose toxicity; type: in vivo; settings: repeated iv 1.5mg/kg
# Protocol: as §3
# [9] = test system: ergosterol-containing membranes; assay: Preliminary SPR experiments; type: binding; settings: ergosterol- vs cholesterol-containing liposomes, unpublished data
# [10] = rats, oral administration
# in vivo [11] = settings: male, SD, rat, plasma, iv, 1 mg/kg
smiles,measurement,setting,value
"CC(=O)NC1C(OC2C(C)OC(OC3C=CC=CC=CC=CC=CC=CC=CC(C)C(O)C(C)C(C)OC(=O)CC(O)CC(O)CC(O)CCC(O)C(O)CC4(O)CC(O)C(C(=O)O)C(C3)O4)C(O)C2N)OC(CO)C(O)C1O (stereo not shown) [NPP B1, Nystatin-like Pseudonocardia polyene B1]",MIC,C. albicans SC5314,4 µg/mL
same,MIC,C. albicans SL28,4 µg/mL
same,MIC,C. albicans SL38,2 µg/mL
same,MIC,[1],2 µg/mL
same,MIC,[2],1 µg/mL
same,MIC,[3],2 µg/mL
same,"Hemolytic activity (MHC, minimum hemolytic concentration)",horse blood cells,13.60 ± 0.19 µg/mL
same,AUC(0-inf),in vivo [4]; read-out: AUC0-inf,15100 ng·h/mL
same,AUC(0-t),in vivo [4]; read-out: AUC0-t,5890 ng·h/mL
same,clearance,in vivo [4]; read-out: CL (converted),0.5 mL/min/kg
same,MRT inf,in vivo [4]; read-out: MRTinf,17 h
same,Vd,in vivo [4]; read-out: Vss,0.6 L/kg
same,half-life,in vivo [4]; read-out: t1/2 (converted),12.3 h
same,LD50 at 7 days,"[5]; female mice, read-out: median lethal dose (LD50)",2.95 mg/kg
same,LD50 at 7 days,"[5]; male mice, read-out: median lethal dose (LD50)",2.95 mg/kg
same,LD50 at 7 days,"[5]; both sexes, mice, read-out: LD50, median lethal dose (dose causing 50% mortality)",2.95 mg/kg
same,Deaths on day after start of treatment,"ICR mice [6]; female, single iv 1mg/kg, day 0",0
same,Deaths on day after start of treatment,"ICR mice [6]; female, single iv 1mg/kg, day 1",0
same,Deaths on day after start of treatment,"ICR mice [6]; female, single iv 1mg/kg, day 2",0
same,Deaths on day after start of treatment,"ICR mice [6]; female, single iv 1mg/kg, day 3",0
same,Deaths on day after start of treatment,"ICR mice [6]; female, single iv 1mg/kg, day 4",0
same,Deaths on day after start of treatment,"ICR mice [6]; female, single iv 1mg/kg, day 5",0
same,Deaths on day after start of treatment,"ICR mice [6]; female, single iv 1mg/kg, day 6",0
same,Deaths on day after start of treatment,"ICR mice [6]; female, single iv 1mg/kg, day 7",0
same,Deaths on day after start of treatment,"ICR mice [6]; female, single iv 2.5mg/kg, day 0",1
same,Deaths on day after start of treatment,"ICR mice [6]; female, single iv 2.5mg/kg, day 1",0
same,Deaths on day after start of treatment,"ICR mice [6]; female, single iv 2.5mg/kg, day 2",1
same,Deaths on day after start of treatment,"ICR mice [6]; female, single iv 2.5mg/kg, day 3",0
same,Deaths on day after start of treatment,"ICR mice [6]; female, single iv 2.5mg/kg, day 4",0
same,Deaths on day after start of treatment,"ICR mice [6]; female, single iv 2.5mg/kg, day 5",0
same,Deaths on day after start of treatment,"ICR mice [6]; female, single iv 2.5mg/kg, day 6",0
same,Deaths on day after start of treatment,"ICR mice [6]; female, single iv 2.5mg/kg, day 7",0
same,Deaths on day after start of treatment,"ICR mice [6]; female, single iv 5mg/kg, day 0",3
same,Deaths on day after start of treatment,"ICR mice [6]; female, single iv 5mg/kg, day 1",2
same,Deaths on day after start of treatment,"ICR mice [6]; female, single iv 5mg/kg, day 2",0
same,Deaths on day after start of treatment,"ICR mice [6]; female, single iv 5mg/kg, day 3",0
same,Deaths on day after start of treatment,"ICR mice [6]; female, single iv 5mg/kg, day 4",0
same,Deaths on day after start of treatment,"ICR mice [6]; female, single iv 5mg/kg, day 5",0
same,Deaths on day after start of treatment,"ICR mice [6]; female, single iv 5mg/kg, day 6",0
same,Deaths on day after start of treatment,"ICR mice [6]; female, single iv 5mg/kg, day 7",0
same,Deaths on day after start of treatment,"ICR mice [6]; male, single iv 1mg/kg, day 0",0
same,Deaths on day after start of treatment,"ICR mice [6]; male, single iv 1mg/kg, day 1",0
same,Deaths on day after start of treatment,"ICR mice [6]; male, single iv 1mg/kg, day 2",0
same,Deaths on day after start of treatment,"ICR mice [6]; male, single iv 1mg/kg, day 3",0
same,Deaths on day after start of treatment,"ICR mice [6]; male, single iv 1mg/kg, day 4",0
same,Deaths on day after start of treatment,"ICR mice [6]; male, single iv 1mg/kg, day 5",0
same,Deaths on day after start of treatment,"ICR mice [6]; male, single iv 1mg/kg, day 6",0
same,Deaths on day after start of treatment,"ICR mice [6]; male, single iv 1mg/kg, day 7",0
same,Deaths on day after start of treatment,"ICR mice [6]; male, single iv 2.5mg/kg, day 0",1
same,Deaths on day after start of treatment,"ICR mice [6]; male, single iv 2.5mg/kg, day 1",0
same,Deaths on day after start of treatment,"ICR mice [6]; male, single iv 2.5mg/kg, day 2",1
same,Deaths on day after start of treatment,"ICR mice [6]; male, single iv 2.5mg/kg, day 3",0
same,Deaths on day after start of treatment,"ICR mice [6]; male, single iv 2.5mg/kg, day 4",0
same,Deaths on day after start of treatment,"ICR mice [6]; male, single iv 2.5mg/kg, day 5",0
same,Deaths on day after start of treatment,"ICR mice [6]; male, single iv 2.5mg/kg, day 6",0
same,Deaths on day after start of treatment,"ICR mice [6]; male, single iv 2.5mg/kg, day 7",0
same,Deaths on day after start of treatment,"ICR mice [6]; male, single iv 5mg/kg, day 0",4
same,Deaths on day after start of treatment,"ICR mice [6]; male, single iv 5mg/kg, day 1",0
same,Deaths on day after start of treatment,"ICR mice [6]; male, single iv 5mg/kg, day 2",1
same,Deaths on day after start of treatment,"ICR mice [6]; male, single iv 5mg/kg, day 3",0
same,Deaths on day after start of treatment,"ICR mice [6]; male, single iv 5mg/kg, day 4",0
same,Deaths on day after start of treatment,"ICR mice [6]; male, single iv 5mg/kg, day 5",0
same,Deaths on day after start of treatment,"ICR mice [6]; male, single iv 5mg/kg, day 6",0
same,Deaths on day after start of treatment,"ICR mice [6]; male, single iv 5mg/kg, day 7",0
same,MTD at 7 days,[7],> 1.5 mg/kg
same,Deaths on day after start of treatment,"ICR mice [8]; female, day 0",0
same,Deaths on day after start of treatment,"ICR mice [8]; female, day 1",0
same,Deaths on day after start of treatment,"ICR mice [8]; female, day 2",0
same,Deaths on day after start of treatment,"ICR mice [8]; female, day 3",0
same,Deaths on day after start of treatment,"ICR mice [8]; female, day 4",0
same,Deaths on day after start of treatment,"ICR mice [8]; female, day 5",0
same,Deaths on day after start of treatment,"ICR mice [8]; female, day 6",0
same,Deaths on day after start of treatment,"ICR mice [8]; female, day 7",0
same,Deaths on day after start of treatment,"ICR mice [8]; male, day 0",0
same,Deaths on day after start of treatment,"ICR mice [8]; male, day 1",0
same,Deaths on day after start of treatment,"ICR mice [8]; male, day 2",0
same,Deaths on day after start of treatment,"ICR mice [8]; male, day 3",0
same,Deaths on day after start of treatment,"ICR mice [8]; male, day 4",0
same,Deaths on day after start of treatment,"ICR mice [8]; male, day 5",0
same,Deaths on day after start of treatment,"ICR mice [8]; male, day 6",0
same,binding preference,[9],binds preferentially to ergosterol-containing liposomes
same,detection in the plasma following oral administration,[10],not detected
same,AUC(0-inf),in vivo [11],13600 ng·h/mL
same,AUC(0-t),in vivo [11],10300 ng·h/mL
same,MRT inf,in vivo [11],15.6 h
same,Vd,in vivo [11],1.1 L/kg
same,clearance,in vivo [11],1.67 mL/min/kg
same,half-life,in vivo [11],14.5 h
